Test results published in patent US8598157B2, “5-alkynyl-pyridines” (Boehringer Ingelheim International GmbH, priority 2011, dated 2013).
pEC50, pIC50: −log10 of the molar value.

Key:
PI3Kalpha = PI3Kalpha (Homo sapiens (Human), UniProt P42336); experiment: Inhibition of PI3Kalpha-induced PIP-2 phosphorylation (filter-binding assay); format: biochemical; conditions: 33P-ATP, p85alpha/His-p110alpha, read-out: IC50 PI3Kα
Description: Inhibition of PI3Kalpha-Induced PIP-2 Phosphorylation
This PI3Kalpha assay provides an IC50 value indicative of the activity of the compounds to inhibit PI3 kinase alpha activity. Inhibition of PI3 kinase would be expected to be indicative of activity in treating conditions of excessive or anomalous cell proliferation, such as cancers. See also J. A. Engelman, Nature Reviews Cancer, 2009, 9, 550-562; A. Carnero, Expert Opin. Investig. Drugs, 2009, 18, 1265-1277 and P. Liu et al., Nature Reviews Drug Discovery, 2009, 8, 627-64.
Method Type: Filter-Binding-Assay
Aliquoted in desired amounts and stored at −80° C. Final assay concentration 25 ng/well • Phosphotyrosin PDGFRbeta-peptide H-CGG-pY-[…]-pY-VPMLDM-NH2 was synthesized by Jerini Peptide Technologies (JPT) and used in a final conc. of 1.7 μM (stock 100 μM prepared in Assay buffer with DTT, aliquoted in desired amounts and stored at −80° C.) • Cold ATP (from Sigma; A-7699), 100 μM stock solution in H2O, use 1 μM final concentration in assay • [33P]-ATP, 370 MBq/ml from Amersham (#AH9968), use 0.5 μCi/well (10 mCi/ml) • Clear 96-well plates from Greiner (#655 162) • Filter plates: Perkin Elmer UniFilter GF/B #6005177 • Microscint 0 (from Perkin Elmer, #6013611) 2. Assay Procedure
The substrate-containing lipid vesicles are dissolved to a concentration of 0.637 mg lipid blend/ml assay buffer (with BSA, freshly added) in 50 ml Falcon->keep on ice, followed by ultrasonication (pulse of 15 sec followed by a pause of 10 sec, 4×). Compounds are serially diluted in assay buffer+6% DMSO and […] of each dilution is added per well of a 96-well plate (compounds are tested in duplicates) and mixed with 30 μl of the lipid vesicles containing PDGFR-Peptide ([…]) and PI3K alpha (25 ng/well final). The mixture is then incubated for 20 minutes at room temperature. Subsequently, 20 μl of assay buffer containing […] cold ATP and 0.5 μCi/20 μl 33P-ATP are added. The plates are then incubated at room temperature for 120 minutes (shaking with 300 rpm).
The reaction mix is transferred onto filter plates using “filtermate harvester” from Packard: filter plates are rinsed with PBS, then the reaction mix is filtered onto the filter plate, washed 5 times with PBS and are allowed to dry for 30-60 minutes at 50° C.
The plate bottom is sealed with Perkin Elmer white adhesive foil and 25 μl/well Microscint( ) are added, the top is covered with transparent adhesive foil and the plate is measured with Wallac Trilux 1450 Microbeta Counter.
As positive control serve wells containing vehicle controls (1% DMSO in assay buffer), showing non-inhibited kinase activity (high values). Wells containing assay buffer instead of enzyme can serve as control for background activity (low values).
Calculate IC50 values using the Smiley program (based on GrapPad Prism)

H460 cells = experiment: alamarBlue H460 cell assay (antiproliferative/cytotoxicity); format: cell-based; conditions: NCI-H460; H460 human lung carcinoma cells
Description: (§1) The H460, MB453, U87, MCF7 and BT474 alamarBlue cell assays provide EC50 values indicative of the antiproliferative or cytotoxic effects of the compounds to respectively the H460 (human non small cell line cancer), MB-453 (breast cancer cell line), U87 (glioblastoma cell line), MCF7 (breast cancer cell line) and BT474 (breast cancer cell line). As known in the field, antiproliferative or cytotoxic effect against this cell lines would be expected to be indicative of activity in treating lung, breast and brain cancers. See R. Marone R et al. Biochim. Biophys. Acta. 2008 January; 1784(1):159-85. S. Yaguchi et al., J. Natl. Cancer Inst. 2006 Apr. 19; 98(8):545-56.
(§2) Method Type: Antiproliferative/Cytotoxicity
(§3) alamarBlue® is designed to provide a rapid and sensitive measure of cell proliferation and cytotoxicity in various human and animal cell lines. The assay is based on the reduction of alamarBlue in the reducing environment of living (metabolically active) cells. In the presence of added cytotoxic or antiproliferative compounds, the innate metabolic activity ceases.
(§4) AlamarBlue is soluble and stable in culture medium. Measurements are made fluorometrically by exciting at 530-560 nm and measuring emission at 590 nm. In reporting percent alamarBlue reduction by monitoring fluorescence, data are expressed as fluorescence emission intensity units as a function of time of incubation.
(§5) 3. Equipment • 96-well plates, flat bottom (Falcon, Cat. No.: 353072) • 96-well plates, U-shaped (Costar, Cat. No.: 3799) • CO2-Incubator • Microplate Reader, Spectramax Plus, Molecular Devices 4. Typical Procedure • Day 0: Seed 3000 BT-474 cells (IMDM/5% FCS, 1% NEAA, 1% Sodiumpyruvat) in 150 μl medium into a 96-well plate, flat bottom (include mediumblank). Incubate plates at 37° C. in a CO2 incubator overnight. • Day 1: Dilute compounds to a concentration 40 μM->1:3 in medium, 10 dilution steps, in 96-well plates. • Add 50 μl per well of each dilution (total volume per well 200 μl; final conc. of cpds: 10 μM->1:3). If required, test further dilutions. • All concentrations are tested in duplicates. • Controls: Cells w/o cpd. (+50 μl medium/DMSO). • Cells are incubated with compounds for 5-6 days. • Day 6 or 7: Add 25 μl of alamarBlue solution to each well and incubate for 8 hours at 37° C. Measure fluorescence by exciting at 530-560 nm and measuring emission at 590 nm. 5. Evaluation • Subtract average value for medium blank from sample readings • Calculate EC50 using GraphPad Prism (Fifty)

MB453 cells = experiment: alamarBlue MB453 cell assay (antiproliferative/cytotoxicity); format: cell-based; conditions: Homo sapiens; MDA MB 453 breast cancer cell line
Description: as §1, §2, §3, §4, §5

U87 cells = experiment: U87 cell assay (antiproliferative/cytotoxicity); format: cell-based; conditions: U-87MG human glioblastoma cells
Description: as §1, §2, §3, §4, §5

MCF7 cells = experiment: alamarBlue MCF7 cell assay (antiproliferative/cytotoxicity); format: cell-based; conditions: MCF7 human breast cancer cell line
Description: as §1, §2, §3, §4, §5

BT474 cells = experiment: alamarBlue BT474 cell assay (antiproliferative/cytotoxicity); format: cell-based; conditions: BT-474 human breast cancer cell line
Description: as §1, §2, §3, §4, §5

Sequence of PI3Kalpha (P42336 whole entry): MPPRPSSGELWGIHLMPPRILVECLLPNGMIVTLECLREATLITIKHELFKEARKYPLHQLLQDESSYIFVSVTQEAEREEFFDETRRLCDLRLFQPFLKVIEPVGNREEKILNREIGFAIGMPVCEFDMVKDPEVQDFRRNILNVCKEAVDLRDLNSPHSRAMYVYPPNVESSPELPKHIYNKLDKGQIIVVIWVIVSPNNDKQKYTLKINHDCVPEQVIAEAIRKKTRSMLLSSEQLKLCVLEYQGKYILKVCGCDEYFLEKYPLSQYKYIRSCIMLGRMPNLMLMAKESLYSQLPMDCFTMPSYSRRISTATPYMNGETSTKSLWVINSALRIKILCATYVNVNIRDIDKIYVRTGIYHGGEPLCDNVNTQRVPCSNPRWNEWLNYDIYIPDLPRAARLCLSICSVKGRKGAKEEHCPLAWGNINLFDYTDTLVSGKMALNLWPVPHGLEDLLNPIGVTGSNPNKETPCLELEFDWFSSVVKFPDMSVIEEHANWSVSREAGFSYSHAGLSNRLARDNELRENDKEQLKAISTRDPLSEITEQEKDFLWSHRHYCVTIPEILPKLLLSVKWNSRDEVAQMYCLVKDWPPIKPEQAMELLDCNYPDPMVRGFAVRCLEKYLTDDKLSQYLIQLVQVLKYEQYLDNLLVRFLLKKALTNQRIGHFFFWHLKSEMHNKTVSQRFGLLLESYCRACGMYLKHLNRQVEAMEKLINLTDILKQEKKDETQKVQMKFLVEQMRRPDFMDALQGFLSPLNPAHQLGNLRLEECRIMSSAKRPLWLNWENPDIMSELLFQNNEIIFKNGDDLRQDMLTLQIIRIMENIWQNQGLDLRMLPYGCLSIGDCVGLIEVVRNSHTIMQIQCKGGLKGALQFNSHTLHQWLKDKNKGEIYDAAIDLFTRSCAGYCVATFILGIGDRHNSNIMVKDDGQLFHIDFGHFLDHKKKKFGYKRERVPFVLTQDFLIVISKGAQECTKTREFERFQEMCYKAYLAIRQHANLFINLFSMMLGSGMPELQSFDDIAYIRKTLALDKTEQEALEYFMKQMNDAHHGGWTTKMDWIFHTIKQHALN

| pIC50 (PI3Kalpha) | SMILES | pEC50 (H460 cells) | pEC50 (MB453 cells) | pEC50 (U87 cells) | pEC50 (MCF7 cells) | pEC50 (BT474 cells) |
| --- | --- | --- | --- | --- | --- | --- |
| 9.19 | Cc1ncc(C#Cc2c(C)ncnc2N2CCOCC2)cc1NS(=O)(=O)c1ccccc1F [Example I-2, 2-Fluoro-N-[2-methyl-5-(4-methyl-6-morpholin-4-yl-pyrimidin-5-ylethynyl)-pyridin-3-yl]-benzenesulfonamide] | 6.63 | 6.77 | 6.47 | 7.37 | 6.83 |
| 8.30 | CCCS(=O)(=O)Nc1cc(C#Cc2c(C)ncnc2N2CCOCC2)cnc1C [Example I-3, Propane-1-sulfonic acid [2-methyl-5-(4-methyl-6-morpholin-4-yl-pyrimidin-5-ylethynyl)-pyridin-3-yl]-amide] | 6.50 | 6.11 | 6.28 | 6.35 | 5.99 |
| 9.00 | COc1cccc(S(=O)(=O)Nc2cc(C#Cc3c(C)ncnc3N3CCOCC3)cnc2C)c1 [Example I-4, 3-Methoxy-N-[2-methyl-5-(4-methyl-6-morpholin-4-yl-pyrimidin-5-ylethynyl)-pyridin-3-yl]-benzenesulfonamide] | 6.94 | 6.53 | 6.33 | 6.53 | 6.61 |
| 9.00 | Cc1ncc(C#Cc2c(C)ncnc2N2CCOCC2)cc1NS(=O)(=O)c1ccccc1Cl [Example I-5, 2-Chloro-N-[2-methyl-5-(4-methyl-6-morpholin-4-yl-pyrimidin-5-ylethynyl)-pyridin-3-yl]-benzenesulfonamide] | 7.19 | 6.69 | 6.57 | 7.21 | 6.82 |
| 9.00 | Cc1ncc(C#Cc2c(C)ncnc2N2CCOCC2)cc1NS(=O)(=O)c1cccc(F)c1 [Example I-6, 3-Fluoro-N-[2-methyl-5-(4-methyl-6-morpholin-4-yl-pyrimidin-5-ylethynyl)-pyridin-3-yl]-benzenesulfonamide] | 6.89 | 6.59 | 6.43 | 7.12 | 6.71 |
| 9.10 | Cc1ncc(C#Cc2c(C)ncnc2N2CCOCC2)cc1NS(=O)(=O)c1c(F)cccc1F [Example I-7, 2,6-Difluoro-N-[2-methyl-5-(4-methyl-6-morpholin-4-yl-pyrimidin-5-ylethynyl)-pyridin-3-yl]-benzenesulfonamide] | 6.97 | 6.84 | 6.65 | 7.42 | 7.09 |
| 9.00 | Cc1ncc(C#Cc2c(C)ncnc2N2CCOCC2)cc1NS(=O)(=O)c1ccccc1Br [Example I-8, 2-Bromo-N-[2-methyl-5-(4-methyl-6-morpholin-4-yl-pyrimidin-5-ylethynyl)-pyridin-3-yl]-benzenesulfonamide] | 7.33 | 6.84 | 6.69 | 7.34 | 6.87 |
| 9.00 | Cc1ncc(C#Cc2c(C)ncnc2N2CCOCC2)cc1NS(=O)(=O)c1cn(C)cn1 [Example I-9, 1-Methyl-1H-imidazole-4-sulfonic acid [2-methyl-5-(4-methyl-6-morpholin-4-yl-pyrimidin-5-ylethynyl)-pyridin-3-yl]-amide] | 5.84 | 5.97 | 5.84 | 6.13 | 6.07 |
| 9.14 | Cc1ncc(C#Cc2c(C)ncnc2N2CCOCC2)cc1NS(=O)(=O)c1cccs1 [Example I-10, Thiophene-2-sulfonic acid [2-methyl-5-(4-methyl-6-morpholin-4-yl-pyrimidin-5-ylethynyl)-pyridin-3-yl]-amide] | 7.38 | 6.95 | 6.90 | 7.17 | 6.94 |
| 9.00 | Cc1ccccc1S(=O)(=O)Nc1cc(C#Cc2c(C)ncnc2N2CCOCC2)cnc1C [Example I-11, 2-Methyl-N-[2-methyl-5-(4-methyl-6-morpholin-4-yl-pyrimidin-5-ylethynyl)-pyridin-3-yl]-benzenesulfonamide] | 7.25 | 6.53 | 6.33 | 6.72 | 6.57 |
| 8.40 | COCCS(=O)(=O)Nc1cc(C#Cc2c(C)ncnc2N2CCOCC2)cnc1C [Example I-12, 2-Methoxy-ethanesulfonic acid [2-methyl-5-(4-methyl-6-morpholin-4-yl-pyrimidin-5-ylethynyl)-pyridin-3-yl]-amide] | 6.31 | 6.08 | 5.89 | 6.33 | 6.16 |
| 9.20 | Cc1ncc(C#Cc2c(C)ncnc2N2CCOCC2)cc1NS(=O)(=O)c1ccccc1C(F)(F)F [Example I-13, N-[2-Methyl-5-(4-methyl-6-morpholin-4-yl-pyrimidin-5-ylethynyl)-pyridin-3-yl]-2-trifluoromethyl-benzenesulfonamide] | 7.64 | 7.20 | 6.97 | 7.74 | 7.16 |
| 9.07 | Cc1ncc(C#Cc2c(C)ncnc2N2CCCCC2)cc1NS(=O)(=O)c1ccc(F)cc1F [Example I-14, 2,4-Difluoro-N-[2-methyl-5-(4-methyl-6-piperidin-1-yl-pyrimidin-5-ylethynyl)-pyridin-3-yl]-benzenesulfonamide] | 6.61 | 6.35 | 6.21 | 6.94 | 6.60 |
| 9.13 | Cc1ncc(C#Cc2c(C)ncnc2N(C)C(C)C)cc1NS(=O)(=O)c1ccc(F)cc1F [Example I-15, 2,4-Difluoro-N-{5-[4-(isopropyl-methyl-amino)-6-methyl-pyrimidin-5-ylethynyl]-2-methyl-pyridin-3-yl}-benzenesulfonamide] | 6.42 | 6.05 | 5.78 | 6.79 | 6.50 |
